Data taken from publication PMC9124820, “In vitro evaluation of fenfluramine and norfenfluramine as victims of drug interactions” (Pharmacology Research & Perspectives, 2022).
Counter-ions that a name gives are not always drawn.

How the values were obtained:
[1] = Metabolic stability and metabolite identity, rat intestinal S9 fractions; assay type: in vitro ADME; settings: FFA incubation, LC-MS/MS; X = identified
Procedure: LC‐MS/MS analyses to assess metabolic stability and identify the transporter substrate were performed using an API 4000 QTRAP mass spectrometer (SCIEX, Framingham, MA) with electrospray ionization in positive mode. Chromatography was performed using an Atlantis dC18 analytical column (100 × 2.1 mm, 5 µm; Waters Corporation, Milford, MA). Mobile phases were 0.2% v/v formic acid in water and 0.2% v/v formic acid in acetonitrile. For metabolic stability experiments, FFA and metabolites were eluted at a flow rate of 0.6 mL/min, with a linear gradient of 20%−80% acetonitrile from 0.30−2.0 min. For transporter substrate experiments, the gradient was slightly modified to achieve suitable chromatography. The mass transitions monitored were 232.0 > 159.0 for FFA and 348.0 > 330.0 for 1ʹ‐OH‐midazolam‐d4 internal standard. […]
FFA (1 or 10 µM) was incubated with liver and intestinal S9 fractions (2 mg protein/mL) at 37 ± 1°C in 0.2‐mL incubation mixtures containing potassium phosphate buffer (50 mM, pH 7.4), magnesium chloride (MgCl2) (3 mM), and EDTA (1 mM, pH 7.4), in the presence or absence of a three‐component cofactor mixture (NADPH‐generating system, uridine diphosphate glucuronic acid (UDPGA) [8 mM], and 3’‐phosphoadenosine 5’‐phosphosulfate [0.5 mM]). […] Supernatant fractions were analyzed by LC‐MS/MS.
To characterize substrate loss and metabolic stability, duplicate samples were analyzed by LC‐MS/MS to determine the change in substrate concentration over the incubation period. The rate constant of elimination (kel, min^−1) was determined from the time course of substrate loss based on single exponential decay (A(t)=A0(‐kelt)) . Half‐life in vitro was determined by the following equation: t1/2 = 0.693/kel. The in vitro intrinsic clearance (CLint) was calculated from the rate constant of elimination as follows: CLintμL/min/mgprotein=kelmin^‐1×incubationvolume(μL)/mgproteinperincubation.
Percent loss of substrate was determined by normalizing the mean analyte peak‐area ratio at each time point to the average of four replicates at the 0‐min time point (100%).

[2] = target: CYP2C19 (Homo sapiens, UniProt P33261); experiment: in vitro; settings: microsomes
Sequence of CYP2C19 (P33261 whole entry): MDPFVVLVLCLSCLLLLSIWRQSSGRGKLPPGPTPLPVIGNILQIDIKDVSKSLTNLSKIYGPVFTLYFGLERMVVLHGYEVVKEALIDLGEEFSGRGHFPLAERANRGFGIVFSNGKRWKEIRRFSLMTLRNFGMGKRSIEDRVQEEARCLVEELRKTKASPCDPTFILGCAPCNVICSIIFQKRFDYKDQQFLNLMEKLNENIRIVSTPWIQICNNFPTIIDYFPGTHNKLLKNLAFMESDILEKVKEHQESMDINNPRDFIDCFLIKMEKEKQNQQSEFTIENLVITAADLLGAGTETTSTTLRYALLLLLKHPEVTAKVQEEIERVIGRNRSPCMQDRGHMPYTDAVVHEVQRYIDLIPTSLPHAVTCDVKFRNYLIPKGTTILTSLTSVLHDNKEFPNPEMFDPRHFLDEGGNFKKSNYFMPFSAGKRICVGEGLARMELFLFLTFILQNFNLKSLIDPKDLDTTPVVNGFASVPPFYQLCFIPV
Procedure: (§1) To determine the metabolic role of individual CYP450 enzymes more quantitatively, FFA (1 μM) or nFFA (0.1 μM) was manually incubated in duplicate with human liver microsomes (1 mg protein/mL) for 60 min (FFA), or for 0 and 120 min (nFFA), in the presence of direct‐acting or metabolism‐dependent chemical inhibitors. […] Solvent controls were processed in parallel with each inhibitor. Under the conditions described above, incubations were conducted and reactions terminated at 0 or 120 min. Metabolite formation for chemical inhibitors was normalized over time to metabolite formation in the respective solvent controls for each inhibitor. Assays were conducted in duplicate due to the low biological and technical variability expected in this assay; statistical analysis was not possible with duplicate samples.

[3] = target: T1, CYP1A2 (Homo sapiens, UniProt P05177); experiment: Chemical inhibition of FFA metabolism in human liver microsomes, CYP1A2; assay type: in vitro ADME; settings: probe FFA (1 µM), demethylation to nFFA, inhibitor 10 µM, metabolism-dependent, read-out: Reduction in FFA demethylation (percent inhibition by a selective inhibitor)
T1 construct: manually incubated in duplicate with human liver microsomes (1 mg protein/mL); tissue Sekisui XenoTech, LLC; host or cells: pooled human liver microsomes (200 donors)
T1 sequence (P05177 1-516): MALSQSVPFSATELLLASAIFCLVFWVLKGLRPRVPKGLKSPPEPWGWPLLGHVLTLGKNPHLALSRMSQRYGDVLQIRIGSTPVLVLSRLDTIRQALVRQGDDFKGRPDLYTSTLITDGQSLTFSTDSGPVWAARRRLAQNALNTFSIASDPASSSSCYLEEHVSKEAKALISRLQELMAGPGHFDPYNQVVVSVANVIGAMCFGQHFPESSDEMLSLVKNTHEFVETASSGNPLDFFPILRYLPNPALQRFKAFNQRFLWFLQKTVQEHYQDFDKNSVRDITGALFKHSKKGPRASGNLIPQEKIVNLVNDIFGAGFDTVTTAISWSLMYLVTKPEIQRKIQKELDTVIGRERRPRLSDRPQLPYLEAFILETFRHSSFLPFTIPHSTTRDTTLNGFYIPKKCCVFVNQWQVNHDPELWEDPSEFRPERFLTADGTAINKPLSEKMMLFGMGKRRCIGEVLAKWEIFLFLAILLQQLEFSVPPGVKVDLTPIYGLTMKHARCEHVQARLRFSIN
Procedure: as §1

[4] = test system: CYP3A4/5; settings: inhibitor 0.1, 0.5, 1 µM, direct-acting; FFA 1 μM, human liver microsomes
Procedure: as §1

[5] = target: T2, CYP2B6 (Homo sapiens, UniProt P20813); experiment: Chemical inhibition of FFA metabolism in human liver microsomes, CYP2B6; assay type: in vitro ADME; settings: probe FFA (1 µM), demethylation to nFFA, inhibitor 30 µM, metabolism-dependent, read-out: Reduction in FFA demethylation (percent inhibition by a selective inhibitor)
T2 construct: manually incubated in duplicate with human liver microsomes (1 mg protein/mL); tissue Sekisui XenoTech, LLC; host or cells: pooled human liver microsomes (200 donors)
T2 sequence (P20813 1-491): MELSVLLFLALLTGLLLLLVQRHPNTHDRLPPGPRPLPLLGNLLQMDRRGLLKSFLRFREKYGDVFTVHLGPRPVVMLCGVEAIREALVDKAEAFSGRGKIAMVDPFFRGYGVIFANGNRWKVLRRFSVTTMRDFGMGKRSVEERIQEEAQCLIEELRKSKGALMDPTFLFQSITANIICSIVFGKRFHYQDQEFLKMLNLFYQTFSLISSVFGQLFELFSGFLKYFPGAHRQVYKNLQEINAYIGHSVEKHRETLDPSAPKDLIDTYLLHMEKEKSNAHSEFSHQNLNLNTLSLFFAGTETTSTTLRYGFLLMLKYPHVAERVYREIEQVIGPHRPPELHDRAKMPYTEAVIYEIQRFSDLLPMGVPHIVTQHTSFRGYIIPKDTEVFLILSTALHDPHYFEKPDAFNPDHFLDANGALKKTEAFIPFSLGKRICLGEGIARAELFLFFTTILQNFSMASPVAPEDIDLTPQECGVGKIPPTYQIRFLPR
Procedure: as §1

[6] = target: CYP2D6 (Homo sapiens, UniProt P10635); experiment: in vitro; settings: microsomes
Sequence of CYP2D6 (P10635 whole entry): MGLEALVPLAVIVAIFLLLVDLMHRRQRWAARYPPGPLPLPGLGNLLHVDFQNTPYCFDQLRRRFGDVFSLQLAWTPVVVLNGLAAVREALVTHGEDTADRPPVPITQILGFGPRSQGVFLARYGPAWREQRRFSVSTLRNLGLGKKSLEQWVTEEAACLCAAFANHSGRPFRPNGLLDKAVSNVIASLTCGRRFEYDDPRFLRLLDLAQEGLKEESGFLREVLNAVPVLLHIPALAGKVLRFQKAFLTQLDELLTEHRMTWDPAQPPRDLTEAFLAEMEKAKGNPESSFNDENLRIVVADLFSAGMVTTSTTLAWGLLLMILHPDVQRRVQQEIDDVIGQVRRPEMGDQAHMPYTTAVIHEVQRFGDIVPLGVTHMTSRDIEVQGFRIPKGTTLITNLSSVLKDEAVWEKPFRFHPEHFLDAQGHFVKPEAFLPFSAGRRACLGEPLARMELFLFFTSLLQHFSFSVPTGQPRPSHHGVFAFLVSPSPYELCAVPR
Procedure: as §1

[7] = target: T3, CYP2C9 (Homo sapiens, UniProt P11712); experiment: Chemical inhibition of FFA metabolism in human liver microsomes, CYP2C9; assay type: in vitro ADME; settings: inhibitor 20 µM, metabolism-dependent
T3 construct: manually incubated in duplicate with human liver microsomes (1 mg protein/mL); tissue Sekisui XenoTech, LLC; host or cells: pooled human liver microsomes (200 donors)
T3 sequence (P11712 whole entry): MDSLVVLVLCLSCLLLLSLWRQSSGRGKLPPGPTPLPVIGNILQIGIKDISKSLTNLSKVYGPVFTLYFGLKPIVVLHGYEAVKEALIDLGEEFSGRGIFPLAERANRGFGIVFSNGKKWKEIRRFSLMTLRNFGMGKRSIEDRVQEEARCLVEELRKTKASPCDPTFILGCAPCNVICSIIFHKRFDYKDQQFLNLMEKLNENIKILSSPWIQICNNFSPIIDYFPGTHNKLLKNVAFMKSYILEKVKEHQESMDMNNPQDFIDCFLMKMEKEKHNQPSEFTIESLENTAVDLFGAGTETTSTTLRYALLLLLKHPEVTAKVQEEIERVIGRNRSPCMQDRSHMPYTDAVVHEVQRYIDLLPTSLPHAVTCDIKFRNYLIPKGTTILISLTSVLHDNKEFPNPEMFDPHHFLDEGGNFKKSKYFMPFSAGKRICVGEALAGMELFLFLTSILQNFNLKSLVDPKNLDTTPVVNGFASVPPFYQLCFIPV
Procedure: as §1

[8] = target: T4, BCRP (Homo sapiens, UniProt Q9UNQ0); settings: cited from earlier work
T4 sequence (Q9UNQ0 1-655): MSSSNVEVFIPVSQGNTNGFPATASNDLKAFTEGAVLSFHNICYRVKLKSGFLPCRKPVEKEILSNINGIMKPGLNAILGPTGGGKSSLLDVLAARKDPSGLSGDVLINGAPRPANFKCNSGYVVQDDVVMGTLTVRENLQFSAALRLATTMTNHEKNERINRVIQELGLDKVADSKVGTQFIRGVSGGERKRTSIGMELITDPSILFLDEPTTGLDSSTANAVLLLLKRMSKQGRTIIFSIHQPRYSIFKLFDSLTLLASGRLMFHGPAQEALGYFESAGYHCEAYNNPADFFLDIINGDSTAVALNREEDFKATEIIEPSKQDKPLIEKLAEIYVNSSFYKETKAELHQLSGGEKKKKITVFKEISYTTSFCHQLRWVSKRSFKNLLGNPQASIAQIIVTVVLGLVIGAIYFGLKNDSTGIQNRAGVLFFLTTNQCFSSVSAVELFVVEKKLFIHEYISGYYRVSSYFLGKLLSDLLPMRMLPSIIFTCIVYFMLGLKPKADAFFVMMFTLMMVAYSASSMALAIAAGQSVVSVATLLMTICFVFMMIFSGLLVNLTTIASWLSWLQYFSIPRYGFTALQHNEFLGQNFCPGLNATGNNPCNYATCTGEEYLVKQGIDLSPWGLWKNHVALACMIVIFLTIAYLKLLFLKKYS

[9] = target: P‐gp (Homo sapiens, UniProt P08183); settings: cited from earlier work
Sequence of P‐gp (P08183 whole entry): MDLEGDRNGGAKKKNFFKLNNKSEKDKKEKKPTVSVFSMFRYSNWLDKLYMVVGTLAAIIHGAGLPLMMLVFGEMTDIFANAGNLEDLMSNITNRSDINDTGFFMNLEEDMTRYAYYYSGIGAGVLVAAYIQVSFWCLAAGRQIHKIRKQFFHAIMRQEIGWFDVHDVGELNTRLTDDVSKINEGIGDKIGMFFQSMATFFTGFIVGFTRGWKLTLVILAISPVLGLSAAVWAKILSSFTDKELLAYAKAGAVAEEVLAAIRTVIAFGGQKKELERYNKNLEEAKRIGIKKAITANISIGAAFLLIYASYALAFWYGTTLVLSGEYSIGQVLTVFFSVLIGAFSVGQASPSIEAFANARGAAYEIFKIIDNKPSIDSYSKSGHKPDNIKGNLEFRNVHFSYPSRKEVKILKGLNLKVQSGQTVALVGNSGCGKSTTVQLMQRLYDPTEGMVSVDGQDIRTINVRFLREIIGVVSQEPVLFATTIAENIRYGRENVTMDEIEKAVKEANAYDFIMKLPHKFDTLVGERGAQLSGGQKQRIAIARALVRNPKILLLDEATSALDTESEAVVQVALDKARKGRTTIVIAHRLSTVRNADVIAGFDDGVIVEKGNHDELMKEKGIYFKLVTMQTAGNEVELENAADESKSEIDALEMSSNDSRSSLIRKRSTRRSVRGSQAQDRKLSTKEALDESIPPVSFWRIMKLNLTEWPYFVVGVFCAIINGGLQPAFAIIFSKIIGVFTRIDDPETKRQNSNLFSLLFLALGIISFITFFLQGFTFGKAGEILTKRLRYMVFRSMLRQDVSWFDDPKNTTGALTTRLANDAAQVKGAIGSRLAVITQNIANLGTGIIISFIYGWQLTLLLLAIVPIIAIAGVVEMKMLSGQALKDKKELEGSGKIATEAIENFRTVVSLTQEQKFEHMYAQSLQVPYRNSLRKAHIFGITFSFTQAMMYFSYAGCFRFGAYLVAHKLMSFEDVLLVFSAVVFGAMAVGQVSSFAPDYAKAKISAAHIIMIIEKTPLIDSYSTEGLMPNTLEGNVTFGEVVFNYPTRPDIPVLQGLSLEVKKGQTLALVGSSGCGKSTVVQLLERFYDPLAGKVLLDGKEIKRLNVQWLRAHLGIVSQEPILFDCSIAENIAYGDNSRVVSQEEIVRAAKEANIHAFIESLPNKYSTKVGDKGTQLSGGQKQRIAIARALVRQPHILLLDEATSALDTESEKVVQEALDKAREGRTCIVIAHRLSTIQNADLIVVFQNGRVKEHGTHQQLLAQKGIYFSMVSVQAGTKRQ

SMILES	substrate capacity for BCRP [8]	substrate capacity for P‐gp [9]	also measured
CC(Cc1cccc(C(F)(F)F)c1)NO (centres unmarked) [C2]	–	–	identified in Intestinal S9 fractions, Rat [1]: trace
COc1ccc2nc([S@@+]([O-])Cc3ncc(C)c(OC)c3C)[nH]c2c1 [Esomeprazole, esomeprazole]	–	–	Reduction in FFA demethylation (percent inhibition by a selective inhibitor) ([2]; 60 min, 10 µM): 8%; inhibition at 60 min, 10 µM ([2]; Reduction in FFA demethylation (percent inhibition by a selective inhibitor)): < 15%
Cc1nc2c([nH]1)c(=O)n(C)c(=O)n2Cc1ccco1 [Furafylline, furafylline]	–	–	inhibition at 60 min, 10 µM [3]: 32%
CC(=O)N1CCN(c2ccc(OCC3COC(Cn4ccnc4)(c4ccc(Cl)cc4Cl)O3)cc2)CC1 (centres unmarked) [Ketoconazole, ketoconazole]	–	–	Reduction in FFA demethylation (percent inhibition by a selective inhibitor) [4]: None
c1ccc(C2(N3CCCCC3)CCCCC2)cc1 [Phencyclidine, phencyclidine hydrochloride]	–	–	inhibition at 60 min, 30 µM [5]: 42%
C=C[C@H]1C[N@@]2CC[C@H]1C[C@@H]2[C@@H](O)c1ccnc2ccc(OC)cc12 [Quinidine, quinidine]	–	–	inhibition at 60 min, 1 µM [6]: 37%
O=C(O)COc1ccc(C(=O)c2cccs2)c(Cl)c1Cl [Tienilic acid]	–	–	inhibition at 60 min, 20 µM ([7]; human, liver microsomes, probe FFA (1 µM), demethylation to nFFA, read-out: Reduction in FFA demethylation (percent inhibition by a selective inhibitor)): < 15%; Reduction in FFA demethylation (percent inhibition by a selective inhibitor) ([7]; FFA 1 μM): 14%
NC(=O)N1c2ccccc2C=Cc2ccccc21 [carbamazepine]	did not show substrate capacity	did not show substrate capacity	–
CC[C@@H](C(N)=O)N1CCCC1=O [levetiracetam]	did not show substrate capacity	did not show substrate capacity	–
CCC1(c2ccccc2)C(=O)NC(=O)NC1=O [phenobarbital]	did not show substrate capacity	–	–
O=C1NC(=O)C(c2ccccc2)(c2ccccc2)N1 [phenytoin]	did not show substrate capacity	did not show substrate capacity	–
CC1(C)O[C@@H]2[C@@H](CO[C@@]3(COS(N)(=O)=O)OC(C)(C)O[C@@H]23)O1 [topiramate]	did not show substrate capacity	did not show substrate capacity	–
CCCC(CCC)C(=O)O [valproate]	did not show substrate capacity	did not show substrate capacity	–
